# Experimental data from patent publication US20110144345A1, “SULFOXYIMINO-SUBSTITUTED BENZOYL DERIVATIVE AND HERBICIDE” (NIPPON SODA CO., LTD., priority 2008, published 2011).
# What was measured:
# rice plants = assay: Paddy pot test, harmful effects on transplanted rice plants; type: in vivo; set-up: scale not given here; settings: Screening, 63 g/ha, applied at Echinochloa crus-galli 1.5-leaf stage, examined after 3 weeks
# Experimental: (§1) Plastic pots having an area of 100 cm^2 and a depth of 10 cm were filled with paddy soil which is puddled by adding water, and seeds of Echinochloa crus-galli and Scirpus juncoides were planted in the pots. After seeding, rice plants at the 2.5-leaf stage were transplanted and the pots were filled with water. The rice plants were grown in a greenhouse. […] The herbicidal effects and harmful effects on the rice plants were examined after 3 weeks. Herbicidal effects were examined according to the examination criteria described below and were represented by the herbicidal index. [table] […] [formula]
# Echinochloa crus-galli = assay: Paddy pot test, herbicidal effect on Echinochloa crus-galli; type: in vivo; set-up: scale not given here; settings: Screening, 63 g/ha, applied at 1.5-leaf stage, examined after 3 weeks
# Experimental: as §1
# Scirpus juncoides = assay: Paddy pot test, herbicidal effect on Scirpus juncoides; type: in vivo; set-up: scale not given here; settings: Screening, 63 g/ha, examined after 3 weeks
# Experimental: as §1
SMILES,"Rice (harmful effects on the rice plants, index) (rice plants)",melting point [°C],Echinochloa crus-galli (herbicidal index) (Echinochloa crus-galli),Scripus juncoides (herbicidal index) (Scirpus juncoides)
O=C1CCCC(O)=C1C(=O)c1ccc(OC(F)F)c(N=S2(=O)CCCCC2)c1Cl [Example 179],1,125 to 127,7,7
Cc1ccc(C(=O)c2c(C)nn(C)c2O)c(C)c1N=S1(=O)CCCCC1 [Example 109],0,122 to 124,7,8
COc1ccc(C(=O)c2cnn(C)c2OC(=O)c2ccc([N+](=O)[O-])cc2)c(Cl)c1N=S1(=O)CCCCC1 [Example 139],0,151 to 154,10,8
CC(C)c1ccc(C(=O)c2cnn(C)c2O)c(Cl)c1N=S1(=O)CCCCC1 [Example 208],0,102 to 104,8,7
COc1c(C(=O)c2cnn(C)c2O)ccc(C)c1N=S1(=O)CCCCC1 [Example 135],0,85 to 87,5,7
COc1ccc(C(=O)c2cnn(C)c2O)c(OC)c1N=S1(=O)CCCC1 [Example 198],0,151 to 153,5,7
Cn1ncc(C(=O)c2cccc(N=S3(=O)CCCCC3)c2Br)c1O [Example 196],0,177 to 179,6,8
COC(=O)c1ccc(C(=O)c2cnn(C)c2O)c(Cl)c1N=S(C)(C)=O [Example 161],0,115 to 125,9,8
COc1ccc(C(=O)c2cnn(C)c2OCc2ccc3ccccc3c2)c(Cl)c1N=S(C)(=O)Cc1ccccc1 (centres unmarked) [Example 121],0,,7,7
COC(=O)c1ccc(C(=O)c2cnn(C)c2OC(=O)SC(C)(C)C)c(Cl)c1N=S1(=O)CCCCC1 [Example 203],0,,10,7
CSC(=O)Oc1c(C(=O)c2cccc(N=S3(=O)CCCCC3)c2Br)cnn1C [Example 197],0,,7,7
CCS(=O)(CC)=Nc1c(C(=O)OC)ccc(C(=O)C2=C(O)CCCC2=O)c1Cl [Example 148],0,,6,8
COc1ccc(C(=O)c2cnn(C)c2O)c(Cl)c1N=S(C)(=O)c1ccccc1 (centres unmarked) [Example 118],0,,7,8
C=Cc1ccc(C(=O)c2cnn(C)c2O)c(Cl)c1N=S1(=O)CCCCC1 [Example 108],0,,10,8
CCS(=O)(CC)=Nc1c(C)ccc(C(=O)C2=C(O)CCCC2=O)c1C [Example 158],0,,5,5
COc1ccc(C(=O)c2cn(C(=O)SC)n(C)c2=O)c(Cl)c1N=S1(=O)CCCCC1 [Example 155],0,,8,8
CCCS(=O)(CCC)=Nc1c(OC)ccc(C(=O)c2cnn(C)c2OCc2ccc3ccccc3c2)c1Cl [Example 146],0,,5,6
COc1c(N=S2(=O)CCCCC2)cccc1C(=O)c1cnn(C)c1OCc1ccc2ccccc2c1 [Example 132],0,,6,8
COC(=O)n1cc(C(=O)c2ccc(OC)c(N=S3(=O)CCCCC3)c2Cl)c(=O)n1C [Example 105],0,,10,8
COc1ccc(C(=O)c2cnn(C)c2OC(=O)SC)c(Cl)c1N=S(C)(=O)C(C)C (centres unmarked) [Example 211],0,,6,8
COc1ccc(C(=O)c2c(C)nn(C)c2OCc2ccc3ccccc3c2)c(Cl)c1N=S1(=O)CCCCC1 [Example 253],0,,6,8
COc1c(C(=O)c2cnn(C)c2OCc2ccc3ccccc3c2)ccc(C)c1N=S1(=O)CCCCC1 [Example 136],0,,7,8

# The next lines start with results.
"Rice (harmful effects on the rice plants, index) (rice plants)",melting point [°C],SMILES,Echinochloa crus-galli (herbicidal index) (Echinochloa crus-galli),Scripus juncoides (herbicidal index) (Scirpus juncoides)
0,146 to 148,C#CCOc1c(C(=O)c2ccc(OC)c(N=S3(=O)CCCCC3)c2Cl)cnn1C [Example 123],7,5
0,134 to 136,COc1ccc(C(=O)c2cnn(C)c2O)c(Cl)c1N=S1(=O)CCCC1 [Example 126],10,8
0,163 to 165,COc1ccc(C(=O)c2cnn(C)c2OC(=O)SC)c(Cl)c1N=S1(=O)CCCCC1 [Example 154],10,8
0,,CCCSC(=O)Oc1c(C(=O)c2ccc(C(=O)OC)c(N=S3(=O)CCCCC3)c2Cl)cnn1C [Example 202],7,7
0,,CCCS(=O)(=O)Oc1c(C(=O)c2ccc(OC)c(N=S3(=O)CCCCC3)c2Cl)cnn1C [Example 130],10,8
0,,COc1ccc(C(=O)c2cnn(C)c2OCC(=O)c2ccc([N+](=O)[O-])cc2)c(Cl)c1N=S1(=O)CCCCC1 [Example 114],10,8
0,,C=C(C)c1ccc(C(=O)c2cnn(C)c2OC(=O)SC)c(Cl)c1N=S1(=O)CCCCC1 [Example 207],6,7
0,,CCOc1ccc(C(=O)c2cnn(C)c2OC(=O)SC)c(OC)c1N=S1(=O)CCCCC1 [Example 177],5,7
0,,CCN(CC)CC.COc1ccc(C(=O)c2cnn(C)c2O)c(Cl)c1N=S1(=O)CCCCC1 [Example 137],10,8
0,,COc1ccc(C(=O)c2cnn(C)c2OCC(=O)c2ccccc2)c(Cl)c1N=S1(=O)CCCCC1 [Example 116],7,8
0,,C#Cc1ccc(C(=O)c2cnn(C)c2O)c(Cl)c1N=S1(=O)CCCCC1 [Example 166],6,8
0,,COC(=O)c1ccc(C(=O)c2cnn(C)c2OC(=O)SC)c(Cl)c1N=S1(=O)CCCCC1 [Example 152],10,8
